Assay results from PMC8424217 (The Journal of Biological Chemistry, 2021).
Peptide text beside a SMILES is read from it. * marks the point of attachment. Palmitoyl = CCCCCCCCCCCCCCCC(=O)*

Assays:
[1] = tested on: HEK 293 cells; assay: Cell proliferation, MTT assay, HEK 293 cells without receptor; type: cell-based; conditions: 10^−6 M
Excerpt: Each bar corresponds to the mean ± SEM obtained from three independent experiments conducted in triplicate.

[2] = molecular target: T1, rat thoracic aorta rings (Rattus norvegicus, UniProt P49684); assay: Modulation of URP-mediated rat aortic ring contraction; conditions: pepducin 10^−6 M 30 min prior to URP, percentage of KCl (40 mM) contraction divided by tissue response to URP (10^−6 M), mean ± SEM, n = 5, read-out: URP Emax after pepducin pretreatment
T1 sequence (P49684 1-386): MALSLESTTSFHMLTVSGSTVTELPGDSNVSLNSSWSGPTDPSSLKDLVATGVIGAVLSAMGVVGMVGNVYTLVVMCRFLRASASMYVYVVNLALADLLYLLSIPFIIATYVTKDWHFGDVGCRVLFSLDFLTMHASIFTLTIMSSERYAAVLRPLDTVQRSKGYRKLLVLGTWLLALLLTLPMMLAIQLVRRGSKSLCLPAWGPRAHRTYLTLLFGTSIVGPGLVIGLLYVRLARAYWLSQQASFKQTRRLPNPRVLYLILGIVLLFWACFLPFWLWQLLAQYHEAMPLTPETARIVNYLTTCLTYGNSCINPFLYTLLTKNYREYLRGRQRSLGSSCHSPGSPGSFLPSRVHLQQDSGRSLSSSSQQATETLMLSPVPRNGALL
Experimental: Each replicate (n) was conducted on tissue obtained from at least three different animals. Data represent mean ± SEM.
Adult male Sprague-Dawley rats (Charles-River) weighing 250–300 g were housed in cages under controlled illumination (12:12 h light–dark cycle), humidity, and temperature (21–23 °C) and had free access to tap water and rat chow. All experimental procedures were performed in accordance with regulations and ethical guidelines from the Canadian Council for the Care of Laboratory Animals and received approvals of the institutional animal care and use committee of the Institut National de la Recherche Scientifique—Centre Armand-Frappier Santé Biotechnologie. As previously described ([17], [18]), the thoracic aorta was cleared of surrounding tissue and then excised from the aortic arch to the diaphragm. Conjunctive tissues were next removed from the thoracic aorta and the vessels were divided into five rings of 4 mm. The endothelium of each aortic ring was removed by gently rubbing the vessel intimal surface. Aortic rings were then placed in a 5 ml organ bath filled with oxygenated normal Krebs–Henseleit buffer. Eighty microliters of a 2.5 M potassium chloride solution (40 mM final concentration) was used to evaluate maximal contractile responses of each vessel. […] Cumulative concentration–response curves to synthetic peptides were obtained by increasing the concentration of each peptide in the remaining organ chambers (10^−11–10^−5 M).

[3] = Solution NMR conformational analysis in DPC micelles; type: physicochemical; conditions: pH 5.5, 25 °C, restrained MD calculations
Experimental: Samples for NMR spectroscopy were prepared by dissolving the appropriate amount of peptide in 0.54 ml of ^1H2O (pH 5.5), 0.06 ml of ^2H2O to obtain a final DPC-d38 concentration of 2 mM and 200 mM. NMR spectra were recorded on a Varian INOVA 700 MHz spectrometer equipped with a z-gradient 5 mm triple-resonance probe head. All spectra were recorded at a temperature of 25 °C and were calibrated relative to TSP (0.00 ppm) as internal standard. One-dimensional (1D) NMR spectra were recorded in the Fourier mode with quadrature detection. The water signal was suppressed by gradient echo ([70]). Two dimensional (2D) DQF-COSY ([71], [72]), TOCSY ([73]), and NOESY ([74]) spectra were recorded in the phase-sensitive mode as described ([75]). Data block sizes were 2048 addresses in t2 and 512 equidistant t1 values. […] The qualitative and quantitative analyses of DQF-COSY, TOCSY, and NOESY spectra were obtained using the interactive program package XEASY ([76]). Complete ^1H NMR chemical shift assignments were effectively achieved for hUT-Pep2 and [Trp^1, Leu^2]hUT-Pep3 according to the Wüthrich procedure ([77]) via the usual systematic application of DQF-COSY, TOCSY, and NOESY experiments with the support of the XEASY software package (Tables S1 and S3). ^3JαN coupling constants were measured by 1D proton and DQF-COSY spectra. […]

Structure (SMILES) | HEK 293 cell proliferation in absence of receptor [1] | Emax [2] [%] | conformation by NMR [3]
CCCCCCCCCCCCCCCC(=O)N[C@@H](Cc1c[nH]c2ccccc12)C(=O)N[C@@H](CC(C)C)C(=O)N[C@@H](CO)C(=O)N[C@@H](CCC(N)=O)C(=O)N[C@@H](CCCNC(=N)N)C(=O)N[C@@H](C)C(=O)N[C@@H](CO)C(=O)N[C@@H](Cc1ccccc1)C(=O)N[C@@H](CCCCN)C(=O)N[C@@H](CCCNC(=N)N)C(=O)N[C@@H](C)C(=O)N[C@@H](CCCNC(=N)N)C(=O)N[C@@H](CCCNC(=N)N)C(N)=O [[Trp^1, Leu^2]hUT-Pep3] (Palmitoyl-WLSQRASFKRARR-NH2) | completely abrogated | 16 ± 2 | high tendency of [Trp^1, Leu^2]hUT-Pep3 to fold into a helix
CC(C)[C@H](NC(=O)[C@@H]1CSSC[C@H](NC(=O)[C@H](CC(=O)O)NC(=O)[C@@H]2CCCN2C(=O)[C@@H](NC(=O)[C@@H](N)CCC(=O)O)[C@@H](C)O)C(=O)N[C@@H](Cc2ccccc2)C(=O)N[C@@H](Cc2c[nH]c3ccccc23)C(=O)N[C@@H](CCCCN)C(=O)N[C@@H](Cc2ccc(O)cc2)C(=O)N1)C(=O)O [hUII, urotensin II, reference compound] | completely abrogated | – | –
CCCCCCCCCCCCCCCC(=O)N[C@@H](CCCNC(=N)N)C(=O)N1CCC[C@H]1C(=O)N[C@@H](CC(C)C)C(=O)N[C@@H](CC(=O)O)C(=O)N[C@H](C(=O)N[C@H](C(=O)N[C@@H](CCC(N)=O)C(=O)N[C@@H](CCCNC(=N)N)C(=O)N1CCC[C@H]1C(=O)N[C@@H](CCCCN)C(=O)NCC(=O)N[C@@H](Cc1ccc(O)cc1)C(N)=O)C(C)C)[C@@H](C)O [hUT-Pep2] (Palmitoyl-RPLDTVQRPKGY-NH2) | – | 76 ± 8 | two type I β-turns along residues 1–4 and 3–6 and three distorted (type IV) β-turns along residues 4–7, 5–8, and 6–9
